Results reported in US20190330224A1, “ACC INHIBITORS AND USES THEREOF” (Gilead Apollo, LLC, priority 2015, published 2019).
In brackets after ≈: the same amount, converted by molar mass.

Experiments:
Human ACC2 = Human ACC2 (Homo sapiens, UniProt O00763); test: In vitro ACC2 inhibition assay (ADP-Glo), human ACC2; assay type: biochemical; details: 5 nM ACC2, 20 μM ATP, 20 μM acetyl-CoA
C. albicans ATCC 90028 = test: Anti-Fungal Activity Assay (broth microtiter MIC), C. albicans; assay type: cell-based, Candida albicans; details: Candida albicans, ATCC90028, 48 h, 3 replicates; MIC recorded at 48 h; read-out: MIC C. albicans ATCC 90028
Method in brief: (§1)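 Susceptibility testing used direct colony suspensions in RPMI 1640+MOPS from Sabouraud dextrose agar grown at 35° C. Endpoints were visual MICs at 48 h under CLSI M27-A3 microtiter conditions, plus a 24 h reading for soraphen.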

C. krusei ATCC 6258 = test: Anti-Fungal Activity Assay (broth microtiter MIC), C. krusei; assay type: cell-based, Candida krusei; details: Pichia kudriavzevii, ATCC6258, 48 h, 3 replicates; MIC recorded at 48 h; read-out: MIC C. krusei ATCC 6258
Method in brief: as §1

[1] = test system: C. parapsilosis ATCC 22019; test: Anti-Fungal Activity Assay (broth microtiter MIC), C. parapsilosis; assay type: cell-based, Candida parapsilosis; details: Lodderomyces parapsilosis, ATCC22019, 48 h, 3 replicates; MIC recorded at 48 h; read-out: MIC C. parapsilosis ATCC 22019
Method in brief: as §1

Fungal ACC2 = Fungal ACC2 (UniProt Q00955); details: read-out: Fungal ACC2 (IC50, in vitro ACC2 inhibition)
Fungal ACC2, sequence (Q00955 whole entry): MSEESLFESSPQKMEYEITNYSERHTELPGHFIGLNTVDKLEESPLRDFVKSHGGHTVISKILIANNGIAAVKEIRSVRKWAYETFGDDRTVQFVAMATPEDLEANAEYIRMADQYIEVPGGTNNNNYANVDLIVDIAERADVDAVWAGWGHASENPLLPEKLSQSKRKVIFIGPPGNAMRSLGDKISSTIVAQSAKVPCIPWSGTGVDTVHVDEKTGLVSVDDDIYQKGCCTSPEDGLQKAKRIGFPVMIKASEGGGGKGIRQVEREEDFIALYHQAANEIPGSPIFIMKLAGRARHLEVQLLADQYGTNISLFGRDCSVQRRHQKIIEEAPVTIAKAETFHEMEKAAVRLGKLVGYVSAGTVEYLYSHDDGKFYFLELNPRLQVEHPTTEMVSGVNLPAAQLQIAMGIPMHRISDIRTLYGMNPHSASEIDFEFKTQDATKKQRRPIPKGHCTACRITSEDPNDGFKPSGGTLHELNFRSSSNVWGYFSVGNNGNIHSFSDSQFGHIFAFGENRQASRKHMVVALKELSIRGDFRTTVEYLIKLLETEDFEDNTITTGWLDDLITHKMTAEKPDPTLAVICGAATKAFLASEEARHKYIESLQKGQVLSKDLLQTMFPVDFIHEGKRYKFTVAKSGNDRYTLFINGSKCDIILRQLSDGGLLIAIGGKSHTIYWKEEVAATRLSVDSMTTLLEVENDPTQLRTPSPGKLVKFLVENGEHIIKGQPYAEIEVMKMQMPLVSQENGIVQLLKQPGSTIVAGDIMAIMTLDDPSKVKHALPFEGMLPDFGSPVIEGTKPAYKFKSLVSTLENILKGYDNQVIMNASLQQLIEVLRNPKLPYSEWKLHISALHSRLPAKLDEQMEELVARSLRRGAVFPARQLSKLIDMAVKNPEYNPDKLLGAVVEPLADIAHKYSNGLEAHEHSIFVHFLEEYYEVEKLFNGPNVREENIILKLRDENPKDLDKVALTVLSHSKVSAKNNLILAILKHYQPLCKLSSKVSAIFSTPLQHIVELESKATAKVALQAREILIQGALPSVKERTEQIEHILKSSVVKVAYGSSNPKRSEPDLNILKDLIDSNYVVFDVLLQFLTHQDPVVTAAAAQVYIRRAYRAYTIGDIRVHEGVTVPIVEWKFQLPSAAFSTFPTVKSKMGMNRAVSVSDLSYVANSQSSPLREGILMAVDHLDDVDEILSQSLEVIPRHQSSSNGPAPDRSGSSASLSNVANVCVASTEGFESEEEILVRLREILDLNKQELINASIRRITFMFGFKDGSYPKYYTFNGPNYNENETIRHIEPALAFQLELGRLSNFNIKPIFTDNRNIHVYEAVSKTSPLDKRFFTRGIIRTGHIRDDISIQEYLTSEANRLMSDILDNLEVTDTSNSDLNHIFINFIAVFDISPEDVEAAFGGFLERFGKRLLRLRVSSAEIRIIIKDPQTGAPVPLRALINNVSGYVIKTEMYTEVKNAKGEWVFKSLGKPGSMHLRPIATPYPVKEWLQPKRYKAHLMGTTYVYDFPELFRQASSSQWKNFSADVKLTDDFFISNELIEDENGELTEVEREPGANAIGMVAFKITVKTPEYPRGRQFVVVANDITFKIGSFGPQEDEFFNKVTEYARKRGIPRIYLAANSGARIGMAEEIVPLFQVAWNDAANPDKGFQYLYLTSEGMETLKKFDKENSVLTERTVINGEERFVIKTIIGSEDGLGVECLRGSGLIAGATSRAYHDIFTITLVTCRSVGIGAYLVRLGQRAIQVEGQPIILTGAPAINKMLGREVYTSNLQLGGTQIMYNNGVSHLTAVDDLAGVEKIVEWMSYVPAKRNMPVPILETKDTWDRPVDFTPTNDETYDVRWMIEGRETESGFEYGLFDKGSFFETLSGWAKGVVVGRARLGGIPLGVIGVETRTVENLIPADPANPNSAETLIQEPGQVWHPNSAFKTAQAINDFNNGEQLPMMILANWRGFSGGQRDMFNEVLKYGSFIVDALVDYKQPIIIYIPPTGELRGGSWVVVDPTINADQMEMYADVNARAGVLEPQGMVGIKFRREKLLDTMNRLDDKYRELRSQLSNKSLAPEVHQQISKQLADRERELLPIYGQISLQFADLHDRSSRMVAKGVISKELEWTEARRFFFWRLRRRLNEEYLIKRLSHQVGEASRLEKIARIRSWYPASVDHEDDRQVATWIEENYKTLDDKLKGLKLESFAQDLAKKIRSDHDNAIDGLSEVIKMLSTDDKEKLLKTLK

Human ACC2, sequence (O00763 whole entry): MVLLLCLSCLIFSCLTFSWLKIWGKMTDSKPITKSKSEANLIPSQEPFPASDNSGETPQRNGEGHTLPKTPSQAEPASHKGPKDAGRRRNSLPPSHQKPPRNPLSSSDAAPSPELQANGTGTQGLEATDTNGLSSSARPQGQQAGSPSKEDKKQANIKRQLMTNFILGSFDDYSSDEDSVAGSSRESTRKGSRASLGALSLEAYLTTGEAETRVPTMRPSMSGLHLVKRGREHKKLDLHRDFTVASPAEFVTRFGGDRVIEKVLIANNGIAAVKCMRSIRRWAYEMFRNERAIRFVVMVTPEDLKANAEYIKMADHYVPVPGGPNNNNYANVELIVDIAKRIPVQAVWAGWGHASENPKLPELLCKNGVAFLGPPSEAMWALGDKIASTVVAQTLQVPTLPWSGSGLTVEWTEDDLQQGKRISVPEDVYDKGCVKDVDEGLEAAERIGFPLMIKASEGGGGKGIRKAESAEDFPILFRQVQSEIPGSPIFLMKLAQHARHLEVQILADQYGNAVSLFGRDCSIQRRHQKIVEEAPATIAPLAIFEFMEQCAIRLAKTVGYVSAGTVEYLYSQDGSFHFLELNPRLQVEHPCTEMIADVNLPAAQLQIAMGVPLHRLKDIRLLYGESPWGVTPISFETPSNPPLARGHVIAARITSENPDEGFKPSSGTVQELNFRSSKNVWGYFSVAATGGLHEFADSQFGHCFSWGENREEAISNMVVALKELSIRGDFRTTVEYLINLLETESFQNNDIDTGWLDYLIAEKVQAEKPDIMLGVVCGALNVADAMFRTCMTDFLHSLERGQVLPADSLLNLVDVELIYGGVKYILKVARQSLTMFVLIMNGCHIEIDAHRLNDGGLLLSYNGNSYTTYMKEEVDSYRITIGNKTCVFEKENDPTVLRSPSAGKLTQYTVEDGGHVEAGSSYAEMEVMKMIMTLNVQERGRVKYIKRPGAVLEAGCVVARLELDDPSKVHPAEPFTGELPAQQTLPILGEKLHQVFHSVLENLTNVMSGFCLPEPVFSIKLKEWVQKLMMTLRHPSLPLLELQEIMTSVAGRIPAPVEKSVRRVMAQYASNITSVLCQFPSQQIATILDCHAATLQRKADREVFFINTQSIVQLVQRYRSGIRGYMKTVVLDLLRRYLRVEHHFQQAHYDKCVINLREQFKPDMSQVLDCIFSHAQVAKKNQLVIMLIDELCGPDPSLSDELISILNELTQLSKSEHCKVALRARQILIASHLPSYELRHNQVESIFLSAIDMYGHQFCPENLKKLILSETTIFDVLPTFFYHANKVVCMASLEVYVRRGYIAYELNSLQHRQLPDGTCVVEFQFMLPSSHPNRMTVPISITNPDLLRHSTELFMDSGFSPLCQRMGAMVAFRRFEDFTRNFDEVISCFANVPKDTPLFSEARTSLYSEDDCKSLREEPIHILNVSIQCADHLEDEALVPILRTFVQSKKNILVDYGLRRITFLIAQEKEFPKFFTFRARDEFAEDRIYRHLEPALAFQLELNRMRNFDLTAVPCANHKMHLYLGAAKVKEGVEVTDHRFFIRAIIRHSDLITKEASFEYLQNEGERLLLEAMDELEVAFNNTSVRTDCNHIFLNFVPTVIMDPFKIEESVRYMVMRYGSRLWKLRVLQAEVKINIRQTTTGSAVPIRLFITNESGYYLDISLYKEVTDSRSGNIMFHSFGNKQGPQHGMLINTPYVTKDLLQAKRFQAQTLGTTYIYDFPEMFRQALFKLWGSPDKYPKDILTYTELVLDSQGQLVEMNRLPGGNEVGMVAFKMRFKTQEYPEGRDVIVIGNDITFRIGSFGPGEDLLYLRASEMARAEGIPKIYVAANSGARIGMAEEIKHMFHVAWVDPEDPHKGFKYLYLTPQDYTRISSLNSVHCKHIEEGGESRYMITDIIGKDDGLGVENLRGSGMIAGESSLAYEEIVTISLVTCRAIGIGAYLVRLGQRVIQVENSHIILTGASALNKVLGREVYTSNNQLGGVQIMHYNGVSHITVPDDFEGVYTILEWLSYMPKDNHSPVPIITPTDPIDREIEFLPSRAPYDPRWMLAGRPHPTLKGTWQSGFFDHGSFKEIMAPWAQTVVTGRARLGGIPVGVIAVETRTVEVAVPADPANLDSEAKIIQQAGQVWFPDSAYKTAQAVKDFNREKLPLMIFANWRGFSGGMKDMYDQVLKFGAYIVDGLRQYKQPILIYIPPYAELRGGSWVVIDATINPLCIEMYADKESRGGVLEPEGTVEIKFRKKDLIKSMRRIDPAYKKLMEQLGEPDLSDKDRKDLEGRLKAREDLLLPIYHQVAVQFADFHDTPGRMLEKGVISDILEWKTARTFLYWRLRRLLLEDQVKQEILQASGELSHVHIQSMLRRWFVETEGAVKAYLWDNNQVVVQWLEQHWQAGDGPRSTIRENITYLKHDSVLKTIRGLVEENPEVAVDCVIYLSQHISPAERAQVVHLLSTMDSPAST

| Structure (SMILES) | IC50 (Human ACC2) [nM] | MIC (C. albicans ATCC 90028) [µg/mL] | MIC (C. krusei ATCC 6258) [µg/mL] | MIC [1] [µg/mL] | IC50 (Fungal ACC2) [nM] |
| --- | --- | --- | --- | --- | --- |
| COCCO[C@@H](Cn1c(=O)n(C2CCN(C(C)C)C2=O)c(=O)c2c(C)c(-n3nccn3)sc21)c1cc(F)ccc1OC (stereo partly drawn) [Compound I-4, 1-((R)-2-(5-fluoro-2-methoxyphenyl)-2-(2-methoxy-ethoxy)ethyl)-3-(1-isopropyl-2-oxopyrrolidin-3-yl)-5-methyl-6-(2H-1,2,3-triazol-2-yl)thieno[2,3-d]pyrimidine-2,4(1H,3H)-dione] | 10 to 100 | 2.1 to 4 (≈ 3.5 to 6.66 µM) | 2.1 to 4 (≈ 3.5 to 6.66 µM) | 2.1 to 4 (≈ 3.5 to 6.66 µM) | 2 to 10 |
| COc1ccc(F)cc1[C@H](Cn1c(=O)n([C@@H]2CCN(C)C2=O)c(=O)c2c(C)c(-n3nccn3)sc21)OC [Compound I-170, 1-((R)-2-(5-fluoro-2-methoxyphenyl)-2-methoxyethyl)-5-methyl-3-((R)-1-methyl-2-oxopyrrolidin-3-yl)-6-(2H-1,2,3-triazol-2-yl)thieno[2,3-d]pyrimidine-2,4(1H,3H)-dione] | 10 to 100 | 2.1 to 4 (≈ 3.97 to 7.57 µM) | 2.1 to 4 (≈ 3.97 to 7.57 µM) | 2.1 to 4 (≈ 3.97 to 7.57 µM) | 0.7 to 2 |
| COc1ccccc1[C@H](Cn1c(=O)n(C2CCNC2=O)c(=O)c2c(C)c(-c3ncco3)sc21)OCCO (stereo partly drawn) [Compound I-53, 1-((R)-2-(2-hydroxyethoxy)-2-(2-methoxyphenyl)ethyl)-5-methyl-6-(oxazol-2-yl)-3-(2-oxopyrrolidin-3-yl)thieno[2,3-d]pyrimidine-2,4(1H,3H)-dione] | 10 to 100 | 2.1 to 4 (≈ 3.99 to 7.6 µM) | 2.1 to 4 (≈ 3.99 to 7.6 µM) | 2.1 to 4 (≈ 3.99 to 7.6 µM) | 10 to 100 |
| COc1ccc(F)cc1[C@H](Cn1c(=O)n([C@H]2CCN(C(=O)C(C)C)C2)c(=O)c2c(C)c(-n3nccn3)sc21)OCCO [Compound I-97, 1-((R)-2-(5-fluoro-2-methoxyphenyl)-2-(2-hydroxy-ethoxy)ethyl)-3-((S)-1-isobutyrylpyrrolidin-3-yl)-5-methyl-6-(2H-1,2,3-triazol-2-yl)thieno[2,3-d]pyrimidine-2,4(1H,3H)-dione] | 10 to 100 | 2.1 to 4 (≈ 3.5 to 6.66 µM) | 2.1 to 4 (≈ 3.5 to 6.66 µM) | 2.1 to 4 (≈ 3.5 to 6.66 µM) | 0.7 to 2 |
| COc1ccc(F)cc1[C@H](Cn1c(=O)n(C2CCNC2=O)c(=O)c2c(C)c(-n3nccn3)sc21)OCCO (stereo partly drawn) [Compound I-5, 1-((R)-2-(5-fluoro-2-methoxyphenyl)-2-(2-hydroxyethoxy)ethyl)-5-methyl-3-(2-oxopyrrolidin-3-yl)-6-(2H-1,2,3-triazol-2-yl)thieno[2,3-d]pyrimidine-2,4(1H,3H)-dione] | 2 to 10 | 2.1 to 4 (≈ 3.86 to 7.35 µM) | 2.1 to 4 (≈ 3.86 to 7.35 µM) | 2.1 to 4 (≈ 3.86 to 7.35 µM) | 0.7 to 2 |
| COc1ccc(F)cc1[C@H](Cn1c(=O)n([C@@H]2CCN(C)C2=O)c(=O)c2c(C)c(-n3nccn3)sc21)O[C@H]1C[C@@H](O)C1 [Compound I-183, 1-((R)-2-(5-fluoro-2-methoxyphenyl)-2-((1s, 3S)-3-hydroxycyclobutoxy)ethyl)-5-methyl-3-((R)-1-methyl-2-oxopyrrolidin-3-yl)-6-(2H-1,2,3-triazol-2-yl)thieno[2,3-d]pyrimidine-2,4(1H,3H)-dione] | 2 to 10 | 0.25 to 1 (≈ 0.428 to 1.71 µM) | 0.25 to 1 (≈ 0.428 to 1.71 µM) | 1.1 to 2 (≈ 1.88 to 3.42 µM) | 0.7 to 2 |
| COc1ccc(F)cc1[C@H](Cn1c(=O)n([C@@H]2CCN(C)C2=O)c(=O)c2c(C)c(-n3cccn3)sc21)OCCC(=O)O [Compound I-179, 3-((R)-1-(5-fluoro-2-methoxyphenyl)-2-(5-methyl-3-((R)-1-methyl-2-oxopyrrolidin-3-yl)-2,4-dioxo-6-(H-pyrazol-1-yl)-3,4-dihydrothieno[2,3-d]pyrimidin-1 (2H)-yl)ethoxy)propanoic acid] | 10 to 100 | 2.1 to 4 (≈ 3.59 to 6.83 µM) | 2.1 to 4 (≈ 3.59 to 6.83 µM) | 2.1 to 4 (≈ 3.59 to 6.83 µM) | 2 to 10 |
| COCCO[C@@H](Cn1c(=O)n([C@H]2CNC(=O)C2)c(=O)c2c(C)c(-n3nccn3)sc21)c1cc(F)ccc1OC [Compound I-88, 1-((R)-2-(5-fluoro-2-methoxyphenyl)-2-(2-methoxy-ethoxy)ethyl)-5-methyl-3-((R)-5-oxopyrrolidin-3-yl)-6-(2H-1,2,3-triazol-2-yl)thieno[2,3-d]pyrimidine-2,4(1H,3H)-dione] | 10 to 100 | 2.1 to 4 (≈ 3.76 to 7.16 µM) | 2.1 to 4 (≈ 3.76 to 7.16 µM) | 2.1 to 4 (≈ 3.76 to 7.16 µM) | 0.7 to 2 |
| COc1ccccc1[C@H](Cn1c(=O)n(C2CCN(C)C2=O)c(=O)c2c(C)c(-c3ncco3)sc21)OCCO (stereo partly drawn) [Compound I-54, 1-((R)-2-(2-hydroxyethoxy)-2-(2-methoxyphenyl)ethyl)-5-methyl-3-(1-methyl-2-oxopyrrolidin-3-yl)-6-(oxazol-2-yl)thieno[2,3-d]pyrimidine-2,4(1H,3H)-dione] | 10 to 100 | 2.1 to 4 (≈ 3.88 to 7.4 µM) | 2.1 to 4 (≈ 3.88 to 7.4 µM) | 2.1 to 4 (≈ 3.88 to 7.4 µM) | 2 to 10 |
| COc1ccc(F)cc1[C@H](Cn1c(=O)n([C@@H]2CC(=O)N(C)C2)c(=O)c2c(C)c(-n3nccn3)sc21)OCCO [Compound I-93, 1-((R)-2-(5-fluoro-2-methoxyphenyl)-2-(2-hydroxy-ethoxy)ethyl)-5-methyl-3-((R)-1-methyl-5-oxopyrrolidin-3-yl)-6-(2H-1,2,3-triazol-2-yl)thieno[2,3-d]pyrimidine-2,4(1H, 3H)-dione] | 2 to 10 | 2.1 to 4 (≈ 3.76 to 7.16 µM) | 2.1 to 4 (≈ 3.76 to 7.16 µM) | 2.1 to 4 (≈ 3.76 to 7.16 µM) | 0.7 to 2 |
| COc1ccc(F)cc1[C@H](Cn1c(=O)n([C@H]2CCN(C)C2=O)c(=O)c2c(C)c(-n3nccn3)sc21)OC [Compound I-168, 1-((R)-2-(5-fluoro-2-methoxyphenyl)-2-methoxyethyl)-5-methyl-3-((S)-1-methyl-2-oxopyrrolidin-3-yl)-6-(2H-1,2,3-triazol-2-yl)thieno[2,3-d]pyrimidine-2,4(1H,3H)-dione] | 10 to 100 | 2.1 to 4 (≈ 3.97 to 7.57 µM) | 2.1 to 4 (≈ 3.97 to 7.57 µM) | 2.1 to 4 (≈ 3.97 to 7.57 µM) | 2 to 10 |
| COc1ccc(F)cc1[C@H](Cn1c(=O)n([C@@]2(C)CCC(=O)N(C)C2)c(=O)c2c(C)c(-n3nccn3)sc21)OCCO [Compound I-143, 3-((S)-1,3-dimethyl-6-oxopiperidin-3-yl)-1-((R)-2-(5-fluoro-2-methoxyphenyl)-2-(2-hydroxyethoxy)ethyl)-5-methyl-6-(2H-1,2,3-triazol-2-yl)thieno[2,3-d]pyrimidine-2,4(1H,3H)-dione] | 2 to 10 | 2.1 to 4 (≈ 3.58 to 6.82 µM) | 2.1 to 4 (≈ 3.58 to 6.82 µM) | 2.1 to 4 (≈ 3.58 to 6.82 µM) | 0.7 to 2 |
| COCCO[C@@H](Cn1c(=O)n([C@H]2CCN(C(C)C)C2=O)c(=O)c2c(C)c(-n3nccn3)sc21)c1cc(F)ccc1OC [Compound I-104, 1-((R)-2-(5-fluoro-2-methoxyphenyl)-2-(2-methoxy-ethoxy)ethyl)-3-((S)-1-isopropyl-2-oxopyrrolidin-3-yl)-5-methyl-6-(2H-1,2,3-triazol-2-yl)thieno[2,3-d]pyrimidine-2,4(1H,3H)-dione] | 10 to 100 | 2.1 to 4 (≈ 3.5 to 6.66 µM) | 2.1 to 4 (≈ 3.5 to 6.66 µM) | 2.1 to 4 (≈ 3.5 to 6.66 µM) | 0.7 to 2 |
| COCCO[C@@H](COc1nc2sc(-n3nccn3)c(C)c2c(=O)n1[C@@H]1CCN(C(=O)C(C)C)C1)c1cc(F)ccc1OC [Compound I-101, 2-((R)-2-(5-fluoro-2-methoxyphenyl)-2-(2-methoxy-ethoxy)ethoxy)-3-((R)-1-isobutyrylpyrrolidin-3-yl)-5-methyl-6-(2H-1,2,3-triazol-2-yl)thieno[2,3-d]pyrimidin-4(3H)-one] | > 1000 | 2.1 to 4 (≈ 3.42 to 6.51 µM) | 2.1 to 4 (≈ 3.42 to 6.51 µM) | 2.1 to 4 (≈ 3.42 to 6.51 µM) | 10 to 100 |
| COc1ccc(F)cc1[C@H](Cn1c(=O)n([C@@H]2CCN(C)C2=O)c(=O)c2c(C)c(-n3nccn3)sc21)O[C@H]1CC[C@@H](O)CC1 [Compound I-153, 1-((R)-2-(5-fluoro-2-methoxyphenyl)-2-(((1 s, 4S)-4-hydroxycyclohexyl)oxy)ethyl)-5-methyl-3-((R)-1-methyl-2-oxopyrrolidin-3-yl)-6-(2H-1,2,3-triazol-2-yl)thieno[2,3-d]pyrimidine-2,4(1H,3H)-dione] | 2 to 10 | 0.075 to 0.24 (≈ 0.122 to 0.392 µM) | 0.25 to 1 (≈ 0.408 to 1.63 µM) | 0.25 to 1 (≈ 0.408 to 1.63 µM) | 0.7 to 2 |
| COc1ccc(F)cc1[C@H](Cn1c(=O)n([C@H]2CCN(C)C2=O)c(=O)c2c(C)c(-n3nccn3)sc21)O[C@H]1CC[C@@H](O)CC1 [Compound I-152, 1-((R)-2-(5-fluoro-2-methoxyphenyl)-2-(((1 s, 4S)-4-hydroxycyclohexyl)oxy)ethyl)-5-methyl-3-((S)-1-methyl-2-oxopyrrolidin-3-yl)-6-(2H-1,2,3-triazol-2-yl)thieno[2,3-d]pyrimidine-2,4(1H,3H)-dione] | 2 to 10 | 0.25 to 1 (≈ 0.408 to 1.63 µM) | 0.25 to 1 (≈ 0.408 to 1.63 µM) | 0.25 to 1 (≈ 0.408 to 1.63 µM) | 2 to 10 |
| Cc1c(-n2nccn2)sc2c1c(=O)n([C@H]1CCN(C)C1=O)c(=O)n2C[C@H](O[C@H]1CC[C@@H](O)CC1)c1cc(F)ccc1O [Compound I-190, 1-((R)-2-(5-fluoro-2-hydroxyphenyl)-2-(((1 s, 4S)-4-hydroxycyclohexyl)oxy)ethyl)-5-methyl-3-((S)-1-methyl-2-oxopyrrolidin-3-yl)-6-(2H-1,2,3-triazol-2-yl)thieno[2,3-d]pyrimidine-2,4(1H,3H)-dione] | 10 to 100 | 2.1 to 4 (≈ 3.51 to 6.68 µM) | 2.1 to 4 (≈ 3.51 to 6.68 µM) | 2.1 to 4 (≈ 3.51 to 6.68 µM) | 0.7 to 2 |
